Several values for one entry are separate records, joined by “and”; a condition that tells them apart may be missing. Identical values can stand only once.
Key:
[1] = biological target: T1, recombinant human PKM2 (Homo sapiens, UniProt P14618); test: Human PKM2 activation assay (Kinase-Glo Plus luminescence, ATP generated); type: biochemical; conditions: * = repeat experiments; for EC50: activation of N-terminal His-tagged hPKM2, 4-parameter logistic fit; for Emax: read-out: hPKM2 Emax
T1 construct: His (N); purchased R&D Systems
Protocol: Measuring In Vitro Activation of Recombinant Human PKM2
(§1) Compound activation of recombinant human PKM2 pyruvate kinase activity was determined by biochemical assay. N-terminal His-tagged hPKM2 was sourced from R&D Systems and its substrates phosphoenolpyruvate (PEP) and ADP from Sigma-Aldrich and 2Bscientific Ltd, respectively. The Kinase-Glo® Plus luminescence assay was from Promega. All other reagents were from Sigma-Aldrich. Test Compounds were prepared as 10 mM DMSO stocks and dilution series prepared in DMSO for direct dilution into Assay Buffer comprising 50 mM imidazole, 50 mM KCl, 7 mM MgCl2, 0.01% Tween20, 0.05% BSA (pH 7.2).
Human PKM2 was diluted into Assay Buffer comprising 50 mM imidazole, 50 mM KCl, 7 mM MgCl2, 0.01% Tween20, 0.05% BSA (pH 7.2) to a final concentration of […]. Enzyme-Assay Buffer mix was dispensed into a 384-well shallow-well white-walled plate (PerkinElmer) and Test Compounds added by acoustic dispense (Echo®, Labcyte Inc.).
(§2) After 60 minutes' incubation on an orbital shaker (300 rpm, 26° C.), enzyme activity was quantified by the luminescent detection of generated ATP. Kinase-Glo® Plus reagent was added to each well and the plates incubated for a further 15 minutes on an orbital shaker in the dark (300 rpm, 26° C.) before luminescence measurement on a plate reader (PHERAstar® FSX, BMG Labtech).
(§3) Percentage activation was calculated by normalising […] signals to plate LOW (DMSO vehicle) and HIGH (5 μM TEPP-46) controls. EC50 and Emax values were determined from 4-parameter logistic fits of compound concentration-response curves.

[2] = biological target: T2, recombinant human PKLR (Homo sapiens, UniProt P30613); test: Human PKLR activation assay (Kinase-Glo Plus luminescence, ATP generated); type: biochemical; conditions: * = repeat experiments; for EC50: activation of N-terminal His-tagged hPKLR, 4-parameter logistic fit; for Emax: read-out: hPKLR Emax
T2 construct: His (N); purchased R&D Systems
Protocol: Biological Example 2—Human PKLR Activation Assay
Measuring In Vitro Activation of Recombinant Human PKLR
as §1, with “PKLR” for “PKM2”, “enzyme” for “hPKM2”
Human PKLR was diluted into Assay Buffer to a final concentration of 5 μM. Enzyme-Assay Buffer mix was dispensed into 384-well shallow-well white-walled plates and Test Compounds added by acoustic dispense (Echo®, Labcyte Inc). Following 10 minutes' incubation at room temperature, the enzyme reaction was initiated by acoustic dispensing of ADP+PEP substrate to final concentrations of 254 μM ADP and 53 μM […].
as §2, §3

[3] = biological target: T3, pyruvate kinase in human CD4+ T cell lysates (Homo sapiens, UniProt P14618); test: CD4+ T cell pyruvate kinase assay (PK activity in lysates of compound-treated cells); type: cell-based; conditions: primary human CD4+ T cells incubated with compound 20 minutes, washed, lysed; ΔAbsorbance OD570 nm
T3 construct: endogenous in cells; host or cells: primary human CD4+ T cells
Protocol: Measuring Pyruvate Kinase (PK) Activity in Human CD4+ T Cell Lysates
Compound activation of pyruvate kinase in human CD4+ T cell lysates was determined by biochemical assay. Primary CD4+ T cells were used rather than cancer cell lines to improve the disease relevance of the assay. The PK assay was sourced from Abcam. All other reagents were sourced from ThermoFisher. Test compounds were prepared as 10 mM DMSO stocks and dilution series prepared in DMSO for addition to intact CD4+ T cells cultured in RPMI media containing 10% FBS.
Human CD4+ T cells were incubated with compound for 20 minutes and then washed twice in 1×PBS before resuspension in Abcam PK lysis buffer to prepare cell lysates. 10 μl PK assay Reaction Mix was added per well, including OXIRED™ PROBE. The plates were read using a BMG Labtech Pherastar plate reader at OD570 nm in kinetic mode for […] (25 cycles of 2 minutes) at 25° C., protecting from light.
Plates were blank-subtracted and ΔAbsorbance calculated by subtracting the first plate read within the linear range from the plate read at the timepoint of interest. PK activity is expressed as ΔAbsorbance and plotted against log [Compound].

[4] = percentage activation normalised to DMSO (LOW) and 5 μM TEPP-46 (HIGH)

T3 sequence (P14618 2-531 limits assumed): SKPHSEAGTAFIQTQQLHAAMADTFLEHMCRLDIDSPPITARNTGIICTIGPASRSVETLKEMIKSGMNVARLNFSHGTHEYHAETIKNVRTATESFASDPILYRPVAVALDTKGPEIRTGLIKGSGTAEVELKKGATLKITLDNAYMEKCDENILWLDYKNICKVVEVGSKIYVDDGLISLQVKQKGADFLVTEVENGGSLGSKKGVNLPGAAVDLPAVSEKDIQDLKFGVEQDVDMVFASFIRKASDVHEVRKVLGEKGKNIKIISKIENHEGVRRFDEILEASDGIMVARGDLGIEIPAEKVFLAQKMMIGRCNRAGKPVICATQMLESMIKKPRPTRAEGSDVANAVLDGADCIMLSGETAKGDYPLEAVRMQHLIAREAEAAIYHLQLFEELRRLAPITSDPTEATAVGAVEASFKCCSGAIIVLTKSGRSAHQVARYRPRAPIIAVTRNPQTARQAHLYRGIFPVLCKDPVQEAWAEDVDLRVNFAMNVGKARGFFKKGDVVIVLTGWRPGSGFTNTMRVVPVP
T1 sequence (P14618 whole entry): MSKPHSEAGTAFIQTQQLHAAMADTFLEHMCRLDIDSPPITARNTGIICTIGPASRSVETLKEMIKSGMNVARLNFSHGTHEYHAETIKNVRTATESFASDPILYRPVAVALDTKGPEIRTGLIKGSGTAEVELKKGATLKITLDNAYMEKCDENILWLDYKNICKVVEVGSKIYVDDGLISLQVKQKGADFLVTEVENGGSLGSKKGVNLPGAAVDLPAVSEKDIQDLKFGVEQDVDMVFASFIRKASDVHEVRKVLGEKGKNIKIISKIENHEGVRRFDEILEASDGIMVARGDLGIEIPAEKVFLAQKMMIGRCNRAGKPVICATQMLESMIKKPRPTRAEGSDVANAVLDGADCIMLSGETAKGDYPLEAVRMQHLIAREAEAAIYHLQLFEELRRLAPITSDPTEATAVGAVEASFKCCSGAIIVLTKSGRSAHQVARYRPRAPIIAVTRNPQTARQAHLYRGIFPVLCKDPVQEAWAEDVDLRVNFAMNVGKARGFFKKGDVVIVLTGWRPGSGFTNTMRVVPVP
T2 sequence (P30613 whole entry): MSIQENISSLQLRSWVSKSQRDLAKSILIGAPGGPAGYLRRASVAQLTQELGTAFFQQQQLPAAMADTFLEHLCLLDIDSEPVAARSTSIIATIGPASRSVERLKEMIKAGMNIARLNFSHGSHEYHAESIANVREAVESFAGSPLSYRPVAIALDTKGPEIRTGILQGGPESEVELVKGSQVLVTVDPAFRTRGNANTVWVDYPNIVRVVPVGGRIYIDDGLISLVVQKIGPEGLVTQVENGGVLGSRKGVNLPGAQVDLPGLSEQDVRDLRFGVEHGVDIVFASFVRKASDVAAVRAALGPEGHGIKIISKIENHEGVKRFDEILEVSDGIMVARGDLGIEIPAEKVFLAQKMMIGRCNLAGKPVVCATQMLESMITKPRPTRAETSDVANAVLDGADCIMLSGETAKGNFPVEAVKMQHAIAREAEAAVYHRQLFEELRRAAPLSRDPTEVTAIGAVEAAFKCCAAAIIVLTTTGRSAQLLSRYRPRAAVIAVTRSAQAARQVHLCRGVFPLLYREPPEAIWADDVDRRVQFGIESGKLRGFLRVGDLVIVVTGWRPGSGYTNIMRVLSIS

Structure (SMILES) | EC50 [1] | Emax [1, 4] [%] | EC50 [2] | Emax [2, 4] [%] | EC50 [3] [µM] | hPKM2 Emax [1, 4] | hPKLR Emax [2, 4]
COc1ccc(Cn2ncc3cc(S(=O)(=O)c4cn[nH]c4)ccc3c2=O)nc1 [Example 1, 6-((1H-pyrazol-4-yl)sulfonyl)-2-((5-methoxypyridin-2-yl)methyl)phthalazin-1(2H)-one] | 0.114 µM | 111 | 0.016 µM | 119 | 0.097 |  | 
O=c1c2ccc(S(=O)(=O)c3cnn(C(F)F)c3)cc2cnn1Cc1cc[nH]n1 [Example 2, 2-((1H-pyrazol-3-yl)methyl)-6-((1-(difluoromethyl)-1H-pyrazol-4-yl)sulfonyl)phthalazin-1(2H)-one] | 0.104 µM | 100 | 0.0331 µM | 123 | 0.168 |  | 
O=c1c2ccc(S(=O)(=O)c3cnn(CCO)c3)cc2cnn1Cc1ccc2c(n1)CCO2 [Example 3, 2-((2,3-dihydrofuro[3,2-b]pyridin-5-yl)methyl)-6-((1-(2-hydroxyethyl)-1H-pyrazol-4-yl)sulfonyl)phthalazin-1(2H)-one] | 0.05 µM | 108 | 0.0066 µM | 118 | 0.07 |  | 
O=c1c2ccc(S(=O)(=O)c3cn[nH]c3)cc2cnn1Cc1cc2n(n1)CCO2 [Example 4, 6-((1H-pyrazol-4-yl)sulfonyl)-2-((2,3-dihydropyrazolo[5,1-b]oxazol-6-yl)methyl)phthalazin-1(2H)-one] | 0.051 µM | 91 | 0.0064 µM | 122 | 0.125 |  | 
Cn1cc(S(=O)(=O)c2ccc3c(=O)n(Cc4cc5n(n4)CCO5)ncc3c2)cn1 [Example 5, 2-((2,3-dihydropyrazolo[5,1-b]oxazol-6-yl)methyl)-6-((1-methyl-1H-pyrazol-4-yl)sulfonyl)phthalazin-1(2H)-one] | 0.0989 µM and 0.207 µM | 110 | 0.0233 µM and 0.0276 µM | 121 | 0.093 | 104* % | 128* %
Cc1[nH]nc(Cn2ncc3cc(S(=O)(=O)c4cc[nH]n4)ccc3c2=O)c1Cl [Example 6, 6-((1H-pyrazol-3-yl)sulfonyl)-2-((4-chloro-5-methyl-1H-pyrazol-3-yl)methyl)phthalazin-1(2H)-one] | 0.043 µM | 94 |  |  | 0.094 |  | 

Source: US12448367B2, “Phthalazine derivatives as pyruvate kinase modulators” (Sitryx Therapeutics Limited, priority 2022, dated 2025)
